Data reported in ChEMBL document CHEMBL1154964, “Acidic elements in histamine H(3) receptor antagonists” (Bioorg Med Chem Lett, 2010).

Molecular target: Histamine H3 receptor (Homo sapiens, UniProt Q9Y5N1)
Assay: Displacement of [125I]Iodoproxyfan from human histamine H3 receptor expressed in HEK293 cells after 60 mins by scintillation counting
Type: cell-based

Histamine H3 receptor, sequence (Q9Y5N1 whole entry): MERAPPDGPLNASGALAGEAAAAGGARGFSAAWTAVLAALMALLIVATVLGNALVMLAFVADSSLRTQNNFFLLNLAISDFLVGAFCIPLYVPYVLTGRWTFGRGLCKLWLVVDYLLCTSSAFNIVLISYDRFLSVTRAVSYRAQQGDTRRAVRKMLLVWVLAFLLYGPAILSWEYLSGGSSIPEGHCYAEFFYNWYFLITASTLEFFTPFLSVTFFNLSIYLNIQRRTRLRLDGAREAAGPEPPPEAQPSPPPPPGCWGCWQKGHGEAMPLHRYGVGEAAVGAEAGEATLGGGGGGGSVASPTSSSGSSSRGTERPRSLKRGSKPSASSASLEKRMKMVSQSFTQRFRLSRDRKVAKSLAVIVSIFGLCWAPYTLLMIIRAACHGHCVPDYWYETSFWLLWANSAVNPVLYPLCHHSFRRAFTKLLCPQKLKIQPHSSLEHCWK

SMILES | Ki
O=C(O)c1cn(C2CC2)c2cc(N3CCN(Cc4ccc(OCCCN5CCCCC5)cc4)CC3)c(F)cc2c1=O | 2 nM
O=C1NC(=O)C(Cc2ccc(OCCCN3CCCCC3)cc2)S1 (centres undefined) | 50.1 nM
O=C1NC(=O)/C(=C/c2ccc(OCCCN3CCCCC3)cc2)S1 | 7.94 nM
O=C1NC(=S)S/C1=C\c1ccc(OCCCN2CCCCC2)cc1 | 5.01 nM
c1cc(C2=NCCN2)ccc1OCCCN1CCCCC1 | 7.94 nM
O=C(O)C1CSC(c2ccc(OCCCN3CCCCC3)cc2)N1 (centres undefined) | 10 nM
COC(=O)C1CSC(c2ccc(OCCCN3CCCCC3)cc2)N1 (centres undefined) | 3.98 nM
CN(CCC=C1c2ccccc2CCc2ccccc21)Cc1ccc(OCCCN2CCCCC2)cc1 | 0.316 nM

Molecular target: T1, Peroxisome proliferator-activated receptor alpha (Homo sapiens, UniProt Q07869)
T1 sequence (Q07869 whole entry): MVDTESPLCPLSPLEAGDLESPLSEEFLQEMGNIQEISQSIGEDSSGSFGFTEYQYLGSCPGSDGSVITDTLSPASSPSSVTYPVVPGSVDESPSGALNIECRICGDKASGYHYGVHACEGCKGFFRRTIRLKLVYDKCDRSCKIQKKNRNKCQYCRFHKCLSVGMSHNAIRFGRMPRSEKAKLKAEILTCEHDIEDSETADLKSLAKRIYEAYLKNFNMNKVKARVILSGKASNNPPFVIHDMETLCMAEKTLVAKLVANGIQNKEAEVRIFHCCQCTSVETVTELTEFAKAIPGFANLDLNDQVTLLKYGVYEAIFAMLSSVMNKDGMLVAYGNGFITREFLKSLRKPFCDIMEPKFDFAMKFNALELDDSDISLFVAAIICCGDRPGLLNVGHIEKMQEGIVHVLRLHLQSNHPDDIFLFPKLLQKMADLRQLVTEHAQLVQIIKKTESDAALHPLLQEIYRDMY
Assay: Agonist activity at human recombinant PPARalpha LBD expressed in african green monkey COS7 cells coexpressing GAL4 by luciferase reporter gene transactivation assay
Type: functional, cell-based, COS-7

SMILES | EC50
O=C1NC(=S)S/C1=C\c1ccc(OCCCN2CCCCC2)cc1 | > 10000 nM
